Experimental data from patent publication US20260365677A1, “NEW CONTRAST AGENTS FOR USE IN DIAGNOSTIC IMAGING” (Bayer Aktiengesellschaft, priority 2022, published 2026).

What was measured:
plasma proteins = conditions: cited from earlier work
[1] = 1.5 T, 37 °C, from Rohrer et al., cited from earlier work; for r1 plasma: bovine plasma instead of human plasma
[2] = Partition coefficient (log P butanol/buffer); assay type: physicochemical; conditions: 50 mM Tris-HCl, pH 7.4, 10 μM, room temperature
Experimental: The partition coefficient P (log P=log(Cbutanol/Cbuffer)) was determined in buffered aqueous solution (10 μM of compound in 0.5 mL 50 mM Tris-HCl saturated with Butanol, pH 7.4) and 1-butanol 1+1 and the mixture was shaken for 2 h at room temperature (n=3). The Gd-concentrations in each phase. CObutano, and Cbuffer were measured by ICP-MS (The Chemistry of Contrast Agents in Medical Magnetic Resonance Imaging” 2nd Ed. Merbach A S, Helm L, Toth E, eds. Hoboken, NJ: Wiley 2013).

[3] = Complex stability (transmetallation) with Zn2+ in phosphate buffer; assay type: physicochemical; conditions: over 72 hours, 2.5 mM Zn^2+, 26 mM phosphate buffer, 37 °C
Experimental: The used method is described elsewhere (Laurent S et al., Stability of MRI paramagnetic contrast media: a proton relaxometric protocol for transmetallation assessment. Invest Radiol. 2001 February; 36(2):115-22). […] If test compounds are instable under these conditions, transmetallation during this test would lead to the formation of the Zn^2+ complex of the test item, while Gd^3+ is released and precipitated as highly insoluble GdPO4.
After 3d of incubation T1 relaxation time was observed.

[4] = system: organic anion-transporting polypeptides (OATP1B1, OATP1B3); conditions: via OATP1B1, OATP1B3; cited from earlier work
[5] = system: multidrug resistance-associated protein 2 (MRP2); conditions: via MRP2 (cMOAT); cited from earlier work
dentate nucleus = conditions: after repeated administration; cited from earlier work
[6] = of the administered dose; cited from earlier work
[7] = Exploratory water solubility in 10 mM Tris-HCl buffer, pH 7.4; assay type: physicochemical; conditions: aqueous buffer (10 mM Tris-HCl), 20 °C
Experimental: The exploratory water solubility of the compounds is determined at room temperature (20 °C) in 0.5 mL buffer solution (10 mM Tris-HCl, pH 7.4) in the microcentrifuge tubes (Eppendorf, 2.0 mL safe-lock caps). The solid compounds were added stepwise to the buffer solution. More substance is added once all the suspended material is dissolved until an equilibrium between undissolved and dissolved substance is reached. The suspension was mixed using a shaker (Heidolph Reax 2000) and treated 5 min in an ultrasound bath (Bandelin, Sonorex Super RK255H). The Gadolinium concentration of the test substance in the clear solution is measured by ICP-MS.

focal liver lesions = conditions: patients with healthy liver or oncologic/cirrhotic liver patients; cited from earlier work

O=C([O-])CN(CCN(CC(=O)[O-])CC(=O)[O-])CCN(CC(=O)[O-])C(COCc1ccccc1)C(=O)[O-].[Gd+3].[H+].[H+] (centres unmarked) [RC2, gadobenic acid]
protein binding (plasma proteins): approximately 10%
r1 plasma [1]: 6.3 L/mmol/s
r1 water [1]: 4.0 L/mmol/s
Log P [2]: −2.07

O=C([O-])CN1CCN(CC(=O)[O-])CCN([C@H](CO)[C@H](O)CO)CCN(CC(=O)[O-])CC1.[Gd+3] (racemic) [RC3, gadobutrol]
Transmetallation stability (in words) [3]: stable
r1 plasma [1]: 5.2 L/mmol/s
r1 water [1]: 3.3 L/mmol/s

CCOc1ccc(CC(CN(CCN(CC(=O)[O-])CC(=O)[O-])CC(=O)[O-])N(CC(=O)[O-])CC(=O)[O-])cc1.[Gd+3].[Na+].[Na+] (centres unmarked) [RC1, gadoxetate disodium]
protein binding (plasma proteins): approximately 10%
uptake by hepatocytes [4]: mainly taken up by hepatocytes via organic anion-transporting polypeptides (OATP1B1, OATP1B3)
excretion into the bile canaliculi [5]: primarily excreted into the bile canaliculi via the multidrug resistance-associated protein 2
signal intensity in the dentate nucleus (dentate nucleus): increased signal intensity in the dentate nucleus
secretion/excretion into the bile [6]: up to 50%
Solubility [7]: >250 mM
detection and identification of focal liver lesions by liver MRI (focal liver lesions): able to detect and identify focal liver lesions with high specificity and sensitivity
r1 plasma [1]: 6.9 L/mmol/s
r1 water [1]: 4.7 L/mmol/s
Log P [2]: −2.12
